Assay results taken from patent US20240132431A1, “METHOD FOR ALKYLATING ACIDIC FUNCTIONAL GROUP” (Chugai Seiyaku Kabushiki Kaisha, priority 2021, published 2024).

Target: T1, Bcl-2 protein (Recombinant Human Bcl-2 Protein) (Homo sapiens, UniProt P10415)
T1 construct: purchased Novus NBP2-34889
Experiment: Binding evaluation of mixture library compounds to Bcl-2 using AS-MS (affinity selection mass spectrometry)
Details: for ASMS ratio (%) n = 1 / ASMS ratio (%) n = 2: ASMS Ratio(%)=(A−C)/B×100; for ASMS ratio (%) n = 1: replicate n = 1; for ASMS ratio (%) n = 2: replicate n = 2
Protocol: For one well of MICROPLATE, 96-well, PP, V-BOTTOM (Greiner bio-one, 651201), DMSO solutions of 12 mixtures (prepared to approximately 0.58 mM based on calculations from the average molecular weight of each mixture), in each of which 100 compounds are mixed, were each dispensed, and dispensed into a total of 12 wells, where the 12 mixtures are mixAI-B4J-01, mixAI-B1M-01, mixAI-B1K-01, mixAI-B10-01, mixAI-B1A-01, mixAI-B3A-01, mixAI-B21-01, mixAI-B2L-01, mixAI-B2N-01, mixAI-B2A-01, mixAI-B2Q-01, and mixAI-B2R-01 listed in [Table AI-03-B4J-01], [Table AI-03-B1M-01], [Table AI-03-B1K-01], [Table AI-03-B10-01], [Table AI-03-B1A-01], [Table AI-03-B3A-01], [Table AI-03-B2I-01], [Table AI-03-B2L-01], [Table AI-03-B2N-01], [Table AI-03-B2A-01], [Table AI-03-B2Q-01], and [AI-03-B2R-01] shown in Example 6. Using the LABCYTE ECHO® 555 Acoustic Dispensing System (BECKMAN COULTER), 70 nL was collected from each of the 12 wells into one arbitrary well to prepare a sample solution with 1200 compounds in the mixed state (the presence of 1152 compounds had already been identified when prepared in Example 6-5-3). (In the present specification, the mixture collected in this one well is referred to as one library.) Furthermore, a Bcl-2 protein (Novus, NBP2-34889, Recombinant Human Bcl-2 Protein, Lot E60145051) (19.2 μL) that had been prepared in advance to be 20.9 μM using a Tris-HCl buffer (25 mM Tris-HCl pH 7.4, 150 mM NaCl, 0.025% Tween-20, 1 mM DTT) was added to the well in which 1200 compounds (the presence of 1152 compounds had already been identified when prepared in Example 6-5-3) were dispensed (final compound concentration […], final Bcl-2 concentration 20 μM), and the mixture was incubated in the dark at 23° C. for 1 hour. Next, using the 96-well MacroSpin column, P-2 Material (Harvard, 74-5655) that had been swollen, conditioning of the 96-well MacroSpin column was performed three times by centrifugation with 200 μL of an assay buffer (25 mM Tris-HCl pH 7.4, 150 mM NaCl, 0.025% Tween-20, 1 mM DTT), 2000 XG, 4° C., 2 min. Subsequently, 20 μL of the sample after incubation was added to the 96-well MacroSpin column, P-2 Material, that had been conditioned, and SEC treatment was performed by centrifugation at 2000×G for 2 minutes. To the liquid passed from the SEC, 32 μL of a 1:1 mixed solution of acetonitrile and methanol (LC/MS grade, Fujifilm Wako Pure Chemical Corporation) was added, the mixture was centrifuged at 1800×G, 4° C., 5 min, and the supernatant was used as analysis sample ASMS (A), while a sample that had been prepared by the same operations at 1200 compounds/well and to which only the Tris-HCl buffer had been added without the Bcl-2 protein was incubated under the same conditions, no 96-well MacroSpin column treatment was performed, the same organic solvent was added, and the supernatant solution obtained by centrifugation was used as STD (B). Next, a sample that had been prepared by the same operations at 1200 compounds/well and to which only the Tris-HCl buffer had been added without the Bcl-2 protein was incubated under the same conditions, the same 96-well MacroSpin column treatment was performed, the same organic solvent was added, and the supernatant solution obtained by centrifugation was used as BK (C), and measured by reversed phase LC/MS.
Then, analysis of the 1200 compounds was carried out for samples A, B, and C with TraceFinder 5.1 (Thermo Fisher Scientific) and CHANCE Software (in-house), and the ASMS Ratio (%) was calculated according to the following calculation formula.
Calculation formula: ASMS Ratio(%)=(A−C)/B×100

[1] = AS-MS, mixture of 1200 compounds, Bcl-2
[2] = AS-MS on the mixture of 1200 library compounds

T1 sequence (P10415 whole entry): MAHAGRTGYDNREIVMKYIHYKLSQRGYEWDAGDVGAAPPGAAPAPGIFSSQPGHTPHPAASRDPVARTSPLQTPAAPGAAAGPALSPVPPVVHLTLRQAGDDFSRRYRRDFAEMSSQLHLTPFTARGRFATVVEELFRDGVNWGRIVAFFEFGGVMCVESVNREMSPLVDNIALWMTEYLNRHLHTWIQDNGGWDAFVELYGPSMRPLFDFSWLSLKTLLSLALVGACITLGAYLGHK

Row | ASMS ratio (%) (n = 1) | ASMS ratio (%) (n = 2) | Compound | ASMS ratio (%) n = 1 [2] [%] | ASMS ratio (%) n = 2 [2] [%] | also measured
1 | – | – | CCOc1cncc(-c2ccc(CN3CCN(c4ccc(C(=O)NCC56CC7CC(CC(C7)C5)C6)nn4)CC3)c(OC)c2)c1 [B1A080-01, N-(1-Adamantylmethyl)-6-[4-[[4-(5-ethoxypyridin-3-yl)-2-methoxyphenyl]methyl]piperazin-1-yl]pyridazine-3-carboxamide] | – | – | ASMS ratio (%) n = 1 [1]: 3.4%; ASMS ratio (%) n = 2 [1]: 0.0%
2 | – | – | CCOc1cncc(-c2cnn(-c3cc(C(=O)N4CCN(c5ccc(C(=O)N(CC)CC)nn5)CC4)cc(C(F)(F)F)c3)c2)c1 [B4J022-01, 6-[4-[3-[4-(5-Ethoxypyridin-3-yl)pyrazol-1-yl]-5-(trifluoromethyl)benzoyl]piperazin-1-yl]-N,N-diethylpyridazine-3-carboxamide] | 0.2 | −0.7 | –
3 | – | – | CCOc1cccc(-c2cc(C(=O)N3CCN(c4ccc(C(=O)N(CC)CC)cc4)CC3)cc(C(F)(F)F)c2)c1 [B4J039-01, 4-[4-[3-(3-Ethoxyphenyl)-5-(trifluoromethyl)benzoyl]piperazin-1-yl]-N,N-diethylbenzamide] | 2.2 | 0.1 | –
4 | – | – | CCOc1cncc(-c2cc(CN3CCN(c4ccc(C(=O)Nc5ccc(OC)cc5)nn4)CC3)cc(C(F)(F)F)c2)c1 [B1O088-01] | 3.1 | 1.4 | –
5 | – | – | CCOc1cccc(-c2ccc(C(=O)N3CCN(c4ccc(C(=O)NS(=O)(=O)c5ccc(NCCSc6ccccc6)c([N+](=O)[O-])c5)cc4)CC3)cc2C)c1 [B2Q025-01, 4-[4-[4-(3-Ethoxyphenyl)-3-methylbenzoyl]piperazin-1-yl]-N-[3-nitro-4-(2-phenylsulfanylethylamino)phenyl]sulfonylbenzamide] | – | – | ASMS ratio (%) n = 1 (AS-MS, mixture library, Bcl-2): −5.7%; ASMS ratio (%) n = 2 (AS-MS, mixture library, Bcl-2): 0.0%
6 | 0.0 | 0.0 | CCOc1cccc(-c2ccc(C(=O)N3CCN(c4ccc(C(=O)NS(=O)(=O)C(C)(C)C)nn4)CC3)cc2C)c1 [B2L003-01, N-tert-Butylsulfonyl-6-[4-[4-(3-ethoxyphenyl)-3-methylbenzoyl]piperazin-1-yl]pyridazine-3-carboxamide] | – | – | –
7 | −1.0 | −2.4 | CCOc1cccc(-c2ccc(C(=O)N3CCN(c4ccc(C(=O)NS(=O)(=O)c5ccc(NCCSc6ccccc6)c(C(F)(F)F)c5)cc4)CC3)cc2C)c1 [B2R025-01, 4-[4-[4-(3-Ethoxyphenyl)-3-methylbenzoyl]piperazin-1-yl]-N-[4-(2-phenylsulfanylethylamino)-3-(trifluoromethyl)phenyl]sulfonylbenzamide] | – | – | –
8 | 35.3 | 13.1 | CCOc1cncc(-c2cc(CN3CCN(c4ccc(C(=O)NS(=O)(=O)c5ccc(NCCSc6ccccc6)c(C(F)(F)F)c5)nn4)CC3)cc(C(F)(F)F)c2)c1 [B2R088-01, 6-[4-[[3-(5-Ethoxypyridin-3-yl)-5-(trifluoromethyl)phenyl]methyl]piperazin-1-yl]-N-[4-(2-phenylsulfanylethylamino)-3-(trifluoromethyl)phenyl]sulfonylpyridazine-3-carboxamide] | – | – | –
9 | 0.2 | 1.8 | CCOc1cncc(-c2csc(CN3CCN(c4ccc(C(=O)NS(=O)(=O)C(C)(C)C)nn4)CC3)c2)c1 [B2L094-01, N-tert-Butylsulfonyl-6-[4-[[4-(5-ethoxypyridin-3-yl)thiophen-2-yl]methyl]piperazin-1-yl]pyridazine-3-carboxamide] | – | – | –
10 | – | – | CCOc1cccc(-c2cc(CN3CCN(c4ccc(C(=O)NCC56CC7CC(CC(C7)C5)C6)nn4)CC3)cc(OCC)c2)c1 [B1A081-01, N-(1-Adamantylmethyl)-6-[4-[[3-ethoxy-5-(3-ethoxyphenyl)phenyl]methyl]piperazin-1-yl]pyridazine-3-carboxamide] | – | – | ASMS ratio (%) n = 1 [1]: −10.9%; ASMS ratio (%) n = 2 [1]: −5.5%
11 | – | – | CCOc1cccc(-c2cc(CN3CCN(c4ccc(C(=O)N(CC)CC)cc4)CC3)cc(OC(C)C)c2)c1 [B4J057-01, 4-[4-[[3-(3-Ethoxyphenyl)-5-propan-2-yloxyphenyl]methyl]piperazin-1-yl]-N,N-diethylbenzamide] | 5.3 | −0.1 | –
